Data on 22 compounds can be found in PubChem BioAssay AID330 (DTP/NCI, 2004).

Several values for one entry are separate records, joined by “and”; a condition that tells them apart may be missing. Equal values may be shown once. Toxic doses and inconclusive results are not listed. Peptide text beside a SMILES is read from it. * marks the point of attachment. Cbz = O=C(OCc1ccccc1)*; OBn = c1ccc(CO*)cc1

This experiment has as its system P388 leukemia ip, CD2F1 mice, survival T/C. Briefly: NCI In Vivo Anticancer Drug Screen. Data for tumor model P388 Leukemia (intraperitoneal) in CD2F1 (CDF1) mice. The conditions noted are these: endpoint: median survival time, higher = longer survival. The gist of the method: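 Mice carrying the transplanted tumor received test compound or vehicle. Survival was recorded in each group, and the value is the treated-group measurement divided by that of the vehicle-treated control group.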

[1] abbreviates: dose: 50.0 mg/kg/injection, schedule: Q01DX005 (ip), vehicle: Klucel (hydroxypropylcellulose) (HPC).
Setting [2] is: dose: 100.0 mg/kg/injection, schedule: Q01DX005 (ip), vehicle: Klucel (hydroxypropylcellulose) (HPC).
Setting [3] is: dose: 200.0 mg/kg/injection, schedule: Q01DX005 (ip), vehicle: Klucel (hydroxypropylcellulose) (HPC).
[4] abbreviates: dose: 50.0 mg/kg/injection, schedule: Q01DX005 (ip), vehicle: saline with Tween-80.
Setting [5] is: dose: 100.0 mg/kg/injection, schedule: Q01DX005 (ip), vehicle: saline with Tween-80.
Setting [6] is: dose: 200.0 mg/kg/injection, schedule: Q01DX005 (ip), vehicle: saline with Tween-80.
The mark [7] stands for this setting: dose: 50.0 mg/kg/injection, schedule: Q01DX009 (ip), vehicle: saline.
Where [8] appears, read: dose: 100.0 mg/kg/injection, schedule: Q01DX009 (ip), vehicle: saline.
[9] abbreviates: dose: 200.0 mg/kg/injection, schedule: Q01DX009 (ip), vehicle: saline.
The mark [10] stands for this setting: dose: 50.0 mg/kg/injection, schedule: Q01DX009 (ip), vehicle: Klucel (hydroxypropylcellulose) (HPC).
The mark [11] stands for this setting: dose: 100.0 mg/kg/injection, schedule: Q01DX009 (ip), vehicle: Klucel (hydroxypropylcellulose) (HPC).
Setting [12] is: dose: 200.0 mg/kg/injection, schedule: Q01DX009 (ip), vehicle: Klucel (hydroxypropylcellulose) (HPC).
Setting [13] is: dose: 25.0 mg/kg/injection, schedule: Q01DX005 (ip), vehicle: Klucel (hydroxypropylcellulose) (HPC).

Regarding `Cc1ccnc(NC(N)=O)n1`, the T/C is, setting by setting: (dose: 50.0 mg/kg/injection, schedule: Q01DX009 (ip), vehicle: saline with Tween-80) 103 % of control; (dose: 100.0 mg/kg/injection, schedule: Q01DX009 (ip), vehicle: saline with Tween-80) 103 % of control; (dose: 200.0 mg/kg/injection, schedule: Q01DX009 (ip), vehicle: saline with Tween-80) 101 % of control.
In the case of `O=C1C2=C(C(=O)c3cnccc31)C1C=CC2CC1` (stereo unspecified), the T/C is 98 % of control (dose: 25.0 mg/kg/injection, schedule: Q01DX005 (ip), vehicle: DMSO); 92 % of control and 98 % of control (dose: 50.0 mg/kg/injection, schedule: Q01DX005 (ip), vehicle: DMSO); 106 % of control under setting [1]; 122 % of control (dose: 100.0 mg/kg/injection, schedule: Q01DX005 (ip), vehicle: DMSO); 103 % of control under setting [2]; 98 % of control under setting [3].
`COc1cc2c(c3c1C(=O)c1c(cc4c(c1O)C(OC1OC(C)C(OC)C(C)(OC)C1OC)CC(C)(O)C4)C3=O)OC1OC2(C)C(O)C(N(C)C)C1O` (stereo unspecified): the T/C is 153 % of control (dose: 5.0 mg/kg/injection, schedule: Q01DX009 (ip), vehicle: other); 159 % of control (dose: 10.0 mg/kg/injection, schedule: Q01DX009 (ip), vehicle: other); 168 % of control (dose: 20.0 mg/kg/injection, schedule: Q01DX009 (ip), vehicle: other).
For the compound `c1ccc2c(NCCCN3CCN(CCCNc4c5ccccc5nc5ccccc45)CC3)c3ccccc3nc2c1`, the T/C is, setting by setting: (dose: 0.93 mg/kg/injection, schedule: Q01DX005 (ip), vehicle: Klucel (hydroxypropylcellulose) (HPC)) 110 % of control; (dose: 1.88 mg/kg/injection, schedule: Q01DX005 (ip), vehicle: Klucel (hydroxypropylcellulose) (HPC)) 104 % of control.
In the case of `O=C1c2ccccc2-c2cc(Br)c(N=Cc3c[nH]c4ccccc34)cc21`, the T/C runs as follows: under setting [4], 105 % of control; under setting [5], 95 % of control; under setting [6], 89 % of control.
Turning to `C=[CH][Sn](=[O])[CH]=C`, the T/C is, setting by setting: under setting [7], 104 % of control; under setting [8], 105 % of control and 89 % of control; under setting [9], 104 % of control and 88 % of control.
Regarding `CCCCCCCCCCCCCC(C)NCc1ccccc1` (stereo unspecified), the T/C runs as follows: (dose: 25.0 mg/kg/injection, schedule: Q04DX003 (ip), vehicle: saline with Tween-80) 96 % of control; (dose: 50.0 mg/kg/injection, schedule: Q04DX003 (ip), vehicle: saline with Tween-80) 100 % of control.
Take `N#CCCN(CCC#N)c1ccc(CC2C(=O)N(c3cccc(S(=O)(=O)O)c3)N=C2C(=O)O)cc1` (stereo unspecified): the T/C was 93 % of control (dose: 60.0 mg/kg/injection, schedule: Q01DX005 (ip), vehicle: saline with Tween-80); 96 % of control (dose: 120.0 mg/kg/injection, schedule: Q01DX005 (ip), vehicle: saline with Tween-80); 95 % of control (dose: 240.0 mg/kg/injection, schedule: Q01DX005 (ip), vehicle: saline with Tween-80).
Take `C=C(CO)C(=O)OC1CC(=C)C2CC(O)C(C)C2C2OC(=O)C(=C)C12` (stereo unspecified): the T/C is, setting by setting: (dose: 0.75 mg/kg/injection, schedule: Q01DX009 (ip), vehicle: Klucel (hydroxypropylcellulose) (HPC)) 100 % of control and 114 % of control; (dose: 1.5 mg/kg/injection, schedule: Q01DX009 (ip), vehicle: Klucel (hydroxypropylcellulose) (HPC)) 104 % of control and 91 % of control; (dose: 3.0 mg/kg/injection, schedule: Q01DX009 (ip), vehicle: Klucel (hydroxypropylcellulose) (HPC)) 98 % of control and 97 % of control; (dose: 6.0 mg/kg/injection, schedule: Q01DX009 (ip), vehicle: Klucel (hydroxypropylcellulose) (HPC)) 102 % of control and 107 % of control and 112 % of control; (dose: 12.0 mg/kg/injection, schedule: Q01DX009 (ip), vehicle: Klucel (hydroxypropylcellulose) (HPC)) 103 % of control; (dose: 24.0 mg/kg/injection, schedule: Q01DX009 (ip), vehicle: Klucel (hydroxypropylcellulose) (HPC)) 98 % of control.
As for `Br[CH](Br)[Hg][c]1ccccc1`, the T/C (dose: 100.0 mg/kg/injection, schedule: Q01DX001 (ip), vehicle: Klucel (hydroxypropylcellulose) (HPC)) was 93 % of control and the T/C (dose: 200.0 mg/kg/injection, schedule: Q01DX001 (ip), vehicle: Klucel (hydroxypropylcellulose) (HPC)) was 96 % of control.
With `O=C(O)C(O)C(F)(F)C(F)(F)C(F)(F)C(F)(F)C(O)C(=O)O` (stereo unspecified), the T/C (dose: 60.0 mg/kg/injection, schedule: Q01DX005 (ip), vehicle: saline) was 93 % of control; the T/C (dose: 120.0 mg/kg/injection, schedule: Q01DX005 (ip), vehicle: saline) was 93 % of control; the T/C (dose: 240.0 mg/kg/injection, schedule: Q01DX005 (ip), vehicle: saline) was 86 % of control.
For `CC(=O)NCCSC(=O)C(O)(c1ccccc1)c1ccccc1`, the T/C under setting [10] is 100 % of control, the T/C under setting [11] was 98 % of control and the T/C under setting [12] was 99 % of control.
As for `CN(C)C(=S)C(C)(C)C`, the T/C is 111 % of control under setting [4], 103 % of control under setting [5] and 106 % of control under setting [6].
The like results for `CC(C)C(NC(=O)C(CCCCNC(=O)OCc1ccccc1)NC(=O)OCc1ccccc1)C(=O)OCc1ccccc1` (stereo unspecified) (Cbz-Lys(Cbz)-Val-OBn; configuration not given here) were, in that order, 89 % of control, 91 % of control and 103 % of control.
In the case of `C(=C\c1ccc2c(c1)OCO2)/c1ccncc1`, the T/C under setting [13] is 102 % of control; the T/C under setting [1] is 94 % of control and 102 % of control; the T/C under setting [2] is 95 % of control and 101 % of control; the T/C under setting [3] was 100 % of control and 90 % of control.
Consider `Nc1cc(S(=O)(=O)O)cc2cc(S(=O)(=O)O)cc(O)c12`, for which the T/C is, setting by setting: (dose: 60.0 mg/kg/injection, schedule: Q01DX005 (ip), vehicle: Klucel (hydroxypropylcellulose) (HPC)) 96 % of control; (dose: 120.0 mg/kg/injection, schedule: Q01DX005 (ip), vehicle: Klucel (hydroxypropylcellulose) (HPC)) 98 % of control; (dose: 240.0 mg/kg/injection, schedule: Q01DX005 (ip), vehicle: Klucel (hydroxypropylcellulose) (HPC)) 95 % of control.
For `CCC1C(=O)OCCOCCOCCOCCOCCOC1=O`, the T/C was 100 % of control under setting [10], 107 % of control under setting [11] and 99 % of control under setting [12].
As for `Fc1ccccc1/C=C/c1ccnnc1`, the T/C runs as follows: under setting [7], 94 % of control; under setting [8], 95 % of control; under setting [9], 103 % of control.
On to `C/C=C1/CN2C3C[C@H]1C(CO)(C(=O)OC)[C@H]2Cc1c3n(C)c2ccccc12` (stereo partly specified), for which the T/C reads like this: (dose: 10.0 mg/kg/injection, schedule: Q01DX009 (ip), vehicle: Klucel (hydroxypropylcellulose) (HPC)) 100 % of control; (dose: 20.0 mg/kg/injection, schedule: Q01DX009 (ip), vehicle: Klucel (hydroxypropylcellulose) (HPC)) 101 % of control; (dose: 40.0 mg/kg/injection, schedule: Q01DX009 (ip), vehicle: Klucel (hydroxypropylcellulose) (HPC)) 104 % of control; (dose: 80.0 mg/kg/injection, schedule: Q01DX009 (ip), vehicle: Klucel (hydroxypropylcellulose) (HPC)) 100 % of control; (dose: 160.0 mg/kg/injection, schedule: Q01DX009 (ip), vehicle: Klucel (hydroxypropylcellulose) (HPC)) 94 % of control.
For the compound `C[Si](C)(C)C#CC(OS(=O)(=O)C(F)(F)F)=C(c1ccccc1)c1ccccc1`, the T/C reads like this: under setting [4], 98 % of control; under setting [5], 99 % of control; under setting [6], 92 % of control.
With `CCC1=CC2CN(CCc3c([nH]c4ccccc34)C(C(=O)OC)(c3cc4c(cc3OC)N(C)C3C(C(=O)OC)=CC5(CC)CCCN6CCC43C65)C2)C1` (stereo unspecified), the T/C is 100 % of control (dose: 12.5 mg/kg/injection, schedule: Q01DX001 (ip), vehicle: water); 100 % of control (dose: 25.0 mg/kg/injection, schedule: Q01DX001 (ip), vehicle: water); 112 % of control (dose: 50.0 mg/kg/injection, schedule: Q01DX001 (ip), vehicle: water); 100 % of control (dose: 100.0 mg/kg/injection, schedule: Q01DX001 (ip), vehicle: water); 100 % of control (dose: 200.0 mg/kg/injection, schedule: Q01DX001 (ip), vehicle: water).
With `C1OCOCO1`, the T/C was 98 % of control under setting [13]; 95 % of control under setting [1]; 95 % of control under setting [2]; 109 % of control under setting [3]; 101 % of control (dose: 400.0 mg/kg/injection, schedule: Q01DX005 (ip), vehicle: Klucel (hydroxypropylcellulose) (HPC)).
